Results reported in the kinase profiling compilation of Christmann-Franck et al. (2016).

Experiments:
Assay in all cases: KINOMEscan competition binding
Details in all cases: compound 0.5 µM
[1] = tested on: FLT3 (human), P36888 [D835Y]
[2] = target: CDK13 (human) (UniProt Q14004)
[3] = target: LATS2 (human) (UniProt Q9NRM7)
[4] = target: AURKB (human) (UniProt Q96GD4)
[5] = target: CDKL2 (human) (UniProt Q92772)
[6] = target: LIMK1 (human) (UniProt P53667)
[7] = tested on: PIK3CA (human), P42336 [Q546K]
[8] = target: GRK4 (human) (UniProt P32298)
[9] = tested on: CPK1 (P.falciparum)
[10] = target: CSNK1G2 (human) (UniProt P78368)
[11] = target: HCK (human) (UniProt P08631)
[12] = target: PIK3CA (human) (UniProt P42336)
[13] = target: CAMKK1 (human) (UniProt Q8N5S9)
[14] = target: ROCK1 (human) (UniProt Q13464)
[15] = target: ULK2 (human) (UniProt Q8IYT8)
[16] = target: MAP4K1 (human) (UniProt Q92918)
[17] = target: PRKD2 (human) (UniProt Q9BZL6)
[18] = target: RPS6KA6 KD2 (human) (UniProt Q9UK32)
[19] = target: ANKK1 (human) (UniProt Q8NFD2)
[20] = target: MAPK11 (human) (UniProt Q15759)
[21] = target: MAPKAPK2 (human) (UniProt P49137)
[22] = target: ROS1 (human) (UniProt P08922)
[23] = target: SGK3 (human) (UniProt Q96BR1)
[24] = target: PIK3C2G (human) (UniProt O75747)
[25] = target: MAP3K7 (human) (UniProt O43318)
[26] = target: JAK2 JH1 catalytic (human) (UniProt O60674)
[27] = target: PKN3 (M.tuberculosis) (UniProt Q6P5Z2)
[28] = target: FES (human) (UniProt P07332)
[29] = tested on: PIK3CA (human), P42336 [M1043I]
[30] = target: TGFBR1 (human) (UniProt P36897)
[31] = target: MAP3K1 (human) (UniProt Q13233)
[32] = target: PRKD3 (human) (UniProt O94806)
[33] = target: DDR2 (human) (UniProt Q16832)
[34] = target: ZAP70 (human) (UniProt P43403)
[35] = tested on: MET (human), P08581 [M1250T]
[36] = target: CSNK2A2 (human) (UniProt P19784)
[37] = tested on: FLT3 (human), P36888 [K663Q]
[38] = target: MAP3K15 (human) (UniProt Q6ZN16)
[39] = target: EIF2AK1 (human) (UniProt Q9BQI3)
[40] = target: SIK2 (human) (UniProt Q9H0K1)
[41] = target: BRSK2 (human) (UniProt Q8IWQ3)
[42] = target: NTRK2 (human) (UniProt Q16620)

Chain of MAPK11 (human) (Q15759 whole entry, looked up): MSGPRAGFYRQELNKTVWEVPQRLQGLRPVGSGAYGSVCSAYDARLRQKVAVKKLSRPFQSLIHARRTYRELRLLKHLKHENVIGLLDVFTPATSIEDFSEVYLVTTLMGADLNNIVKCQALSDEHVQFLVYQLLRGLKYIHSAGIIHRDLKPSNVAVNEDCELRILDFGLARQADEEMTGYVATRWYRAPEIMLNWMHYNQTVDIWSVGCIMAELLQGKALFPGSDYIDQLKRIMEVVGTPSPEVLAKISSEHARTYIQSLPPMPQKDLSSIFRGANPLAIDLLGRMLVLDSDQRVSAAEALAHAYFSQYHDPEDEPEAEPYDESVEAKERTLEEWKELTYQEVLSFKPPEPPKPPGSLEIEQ
Chain of TGFBR1 (human) (P36897 whole entry, looked up): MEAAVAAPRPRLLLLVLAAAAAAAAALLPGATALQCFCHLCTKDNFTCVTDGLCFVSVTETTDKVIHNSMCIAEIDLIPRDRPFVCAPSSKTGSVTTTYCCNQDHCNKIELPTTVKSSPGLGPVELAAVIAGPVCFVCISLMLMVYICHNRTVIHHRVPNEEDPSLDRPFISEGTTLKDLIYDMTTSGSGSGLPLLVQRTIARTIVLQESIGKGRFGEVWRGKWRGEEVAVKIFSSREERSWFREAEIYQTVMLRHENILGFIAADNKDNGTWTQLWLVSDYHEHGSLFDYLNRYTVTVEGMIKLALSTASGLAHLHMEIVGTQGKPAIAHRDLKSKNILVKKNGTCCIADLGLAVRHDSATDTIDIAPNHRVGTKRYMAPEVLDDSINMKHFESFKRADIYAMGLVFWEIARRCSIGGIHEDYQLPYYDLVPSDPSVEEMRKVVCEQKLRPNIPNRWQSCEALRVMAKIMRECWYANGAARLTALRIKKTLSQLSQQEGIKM
Chain of ROCK1 (human) (Q13464 whole entry, looked up): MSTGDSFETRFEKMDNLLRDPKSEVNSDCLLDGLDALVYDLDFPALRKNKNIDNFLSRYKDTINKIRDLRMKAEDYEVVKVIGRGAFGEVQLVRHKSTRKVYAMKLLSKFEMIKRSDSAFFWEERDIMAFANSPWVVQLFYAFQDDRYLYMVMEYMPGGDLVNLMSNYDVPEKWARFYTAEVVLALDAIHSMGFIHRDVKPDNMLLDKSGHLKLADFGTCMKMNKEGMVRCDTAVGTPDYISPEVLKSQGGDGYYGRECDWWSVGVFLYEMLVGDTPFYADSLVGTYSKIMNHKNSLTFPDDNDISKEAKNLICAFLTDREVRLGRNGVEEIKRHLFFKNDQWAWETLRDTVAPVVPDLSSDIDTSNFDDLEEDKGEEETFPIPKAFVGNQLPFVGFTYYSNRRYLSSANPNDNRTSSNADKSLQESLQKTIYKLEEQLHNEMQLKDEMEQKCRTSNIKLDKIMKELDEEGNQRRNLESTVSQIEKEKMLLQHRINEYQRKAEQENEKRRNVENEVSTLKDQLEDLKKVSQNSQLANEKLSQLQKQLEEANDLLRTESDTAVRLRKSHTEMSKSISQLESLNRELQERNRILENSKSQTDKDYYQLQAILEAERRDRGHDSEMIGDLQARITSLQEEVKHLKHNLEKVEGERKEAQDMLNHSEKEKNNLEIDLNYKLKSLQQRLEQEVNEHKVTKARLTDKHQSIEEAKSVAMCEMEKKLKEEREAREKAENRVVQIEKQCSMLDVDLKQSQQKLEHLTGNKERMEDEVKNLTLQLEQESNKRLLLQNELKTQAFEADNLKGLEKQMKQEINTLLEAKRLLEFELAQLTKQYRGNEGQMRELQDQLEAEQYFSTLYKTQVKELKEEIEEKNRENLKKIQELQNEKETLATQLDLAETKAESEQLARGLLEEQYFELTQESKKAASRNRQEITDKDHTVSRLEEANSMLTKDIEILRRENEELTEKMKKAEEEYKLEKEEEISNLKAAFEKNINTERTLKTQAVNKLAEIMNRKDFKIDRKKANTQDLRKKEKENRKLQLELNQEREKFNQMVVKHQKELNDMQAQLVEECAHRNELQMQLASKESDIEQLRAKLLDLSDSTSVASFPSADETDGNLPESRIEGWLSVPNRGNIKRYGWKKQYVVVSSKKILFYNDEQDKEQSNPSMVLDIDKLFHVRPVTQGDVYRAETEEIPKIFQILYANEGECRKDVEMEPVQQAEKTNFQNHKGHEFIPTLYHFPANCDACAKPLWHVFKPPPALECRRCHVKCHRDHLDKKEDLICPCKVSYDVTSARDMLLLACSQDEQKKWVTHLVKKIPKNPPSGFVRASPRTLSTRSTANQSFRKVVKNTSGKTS
Chain of CSNK1G2 (human) (P78368 whole entry, looked up): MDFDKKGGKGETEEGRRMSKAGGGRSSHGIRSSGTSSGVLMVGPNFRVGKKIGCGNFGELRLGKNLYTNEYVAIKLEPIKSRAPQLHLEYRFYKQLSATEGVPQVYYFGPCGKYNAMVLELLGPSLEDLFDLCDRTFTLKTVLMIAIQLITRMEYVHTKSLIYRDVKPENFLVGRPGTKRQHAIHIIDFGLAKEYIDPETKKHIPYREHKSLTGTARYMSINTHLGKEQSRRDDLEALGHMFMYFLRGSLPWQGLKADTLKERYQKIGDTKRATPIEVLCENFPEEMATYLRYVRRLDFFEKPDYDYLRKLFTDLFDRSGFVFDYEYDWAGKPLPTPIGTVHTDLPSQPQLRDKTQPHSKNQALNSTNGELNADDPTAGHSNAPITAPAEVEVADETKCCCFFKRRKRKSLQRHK
Chain of PIK3CA (human) (P42336 whole entry, looked up): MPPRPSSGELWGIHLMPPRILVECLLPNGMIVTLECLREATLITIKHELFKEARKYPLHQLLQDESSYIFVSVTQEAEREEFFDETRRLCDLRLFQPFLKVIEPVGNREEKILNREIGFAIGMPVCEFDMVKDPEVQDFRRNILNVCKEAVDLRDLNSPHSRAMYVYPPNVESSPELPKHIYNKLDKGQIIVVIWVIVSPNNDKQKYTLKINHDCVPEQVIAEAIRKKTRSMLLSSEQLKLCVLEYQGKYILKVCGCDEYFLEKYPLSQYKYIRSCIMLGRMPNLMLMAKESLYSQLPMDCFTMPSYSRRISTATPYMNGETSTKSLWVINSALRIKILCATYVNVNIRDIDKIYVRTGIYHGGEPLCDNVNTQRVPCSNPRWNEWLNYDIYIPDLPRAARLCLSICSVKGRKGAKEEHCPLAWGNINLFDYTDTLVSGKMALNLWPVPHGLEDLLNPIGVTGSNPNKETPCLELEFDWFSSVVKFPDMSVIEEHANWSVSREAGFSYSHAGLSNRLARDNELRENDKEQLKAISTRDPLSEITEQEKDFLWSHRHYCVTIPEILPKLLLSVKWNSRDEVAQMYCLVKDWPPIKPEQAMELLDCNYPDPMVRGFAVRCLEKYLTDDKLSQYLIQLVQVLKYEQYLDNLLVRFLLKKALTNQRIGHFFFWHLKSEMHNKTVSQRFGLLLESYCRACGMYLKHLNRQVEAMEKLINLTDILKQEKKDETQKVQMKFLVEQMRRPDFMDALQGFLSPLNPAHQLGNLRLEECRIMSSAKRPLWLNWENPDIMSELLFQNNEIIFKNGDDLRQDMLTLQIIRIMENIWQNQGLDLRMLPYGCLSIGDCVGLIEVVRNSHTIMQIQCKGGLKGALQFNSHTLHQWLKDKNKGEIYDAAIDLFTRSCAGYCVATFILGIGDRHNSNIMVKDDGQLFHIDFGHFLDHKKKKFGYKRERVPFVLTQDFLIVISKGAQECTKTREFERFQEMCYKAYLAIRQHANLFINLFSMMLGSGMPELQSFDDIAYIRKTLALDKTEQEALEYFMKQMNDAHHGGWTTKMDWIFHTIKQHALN
Chain of HCK (human) (P08631 whole entry, looked up): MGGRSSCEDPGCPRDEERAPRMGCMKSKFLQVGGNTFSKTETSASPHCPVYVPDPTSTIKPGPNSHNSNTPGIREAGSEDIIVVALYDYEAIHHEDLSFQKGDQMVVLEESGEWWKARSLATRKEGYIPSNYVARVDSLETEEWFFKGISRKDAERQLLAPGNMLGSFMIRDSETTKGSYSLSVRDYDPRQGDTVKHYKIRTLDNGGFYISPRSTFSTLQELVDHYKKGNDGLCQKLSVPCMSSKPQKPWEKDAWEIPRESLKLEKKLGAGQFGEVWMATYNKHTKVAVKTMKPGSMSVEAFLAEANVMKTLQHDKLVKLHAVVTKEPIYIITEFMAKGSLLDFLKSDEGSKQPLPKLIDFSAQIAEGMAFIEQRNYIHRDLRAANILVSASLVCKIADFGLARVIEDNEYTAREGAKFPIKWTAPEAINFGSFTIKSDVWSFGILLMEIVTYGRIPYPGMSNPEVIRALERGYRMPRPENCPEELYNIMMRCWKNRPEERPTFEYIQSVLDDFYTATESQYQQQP
Chain of GRK4 (human) (P32298 whole entry, looked up): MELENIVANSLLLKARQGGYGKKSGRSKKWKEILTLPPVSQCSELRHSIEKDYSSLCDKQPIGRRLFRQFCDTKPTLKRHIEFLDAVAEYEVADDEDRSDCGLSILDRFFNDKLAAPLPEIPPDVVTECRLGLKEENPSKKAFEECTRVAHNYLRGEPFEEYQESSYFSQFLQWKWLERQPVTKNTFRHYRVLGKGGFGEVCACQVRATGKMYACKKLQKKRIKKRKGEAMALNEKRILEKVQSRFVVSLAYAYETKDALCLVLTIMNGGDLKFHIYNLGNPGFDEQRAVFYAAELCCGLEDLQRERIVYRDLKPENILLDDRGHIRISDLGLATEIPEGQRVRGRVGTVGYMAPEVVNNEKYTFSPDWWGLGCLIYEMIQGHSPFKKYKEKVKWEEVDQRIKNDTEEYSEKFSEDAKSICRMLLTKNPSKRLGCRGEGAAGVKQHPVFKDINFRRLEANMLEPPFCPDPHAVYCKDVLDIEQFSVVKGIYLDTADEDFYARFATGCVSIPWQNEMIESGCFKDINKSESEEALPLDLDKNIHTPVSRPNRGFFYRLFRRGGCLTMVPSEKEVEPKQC
Chain of PIK3CA (human), P42336 [Q546K] (P42336 whole entry Q546K, looked up): as the sequence (P42336 whole entry, looked up) above, with Q546K counted along it
Chain of PIK3CA (human), P42336 [M1043I] (P42336 whole entry M1043I, looked up): as the sequence (P42336 whole entry, looked up) above, with M1043I counted along it

With Cn1c2ccccc2c2c3c(c4c5ccccc5n(CCC#N)c4c21)CNC3=O as the molecule, how does the kinase still bound, per cent of control [1] read?
The kinase still bound, per cent of control was 0%.

What about the kinase still bound, per cent of control [2] of the same molecule?
Its kinase still bound, per cent of control is 100%.

And the kinase still bound, per cent of control [3]?
Its kinase still bound, per cent of control is 36%.

And the kinase still bound, per cent of control [4]?
Its kinase still bound, per cent of control is 32%.

And the kinase still bound, per cent of control [5]?
The kinase still bound, per cent of control was 26%.

And the kinase still bound, per cent of control [6]?
The kinase still bound, per cent of control was 96%.

And the kinase still bound, per cent of control [7]?
Its kinase still bound, per cent of control is 100%.

What about the kinase still bound, per cent of control [8] of the same molecule?
The kinase still bound, per cent of control was 3%.

What about the kinase still bound, per cent of control [9] of the same molecule?
Its kinase still bound, per cent of control is 35%.

And the kinase still bound, per cent of control [10]?
The kinase still bound, per cent of control was 94%.

And the kinase still bound, per cent of control [11]?
The kinase still bound, per cent of control was 100%.

What about the kinase still bound, per cent of control [12] of the same molecule?
Its kinase still bound, per cent of control is 100%.

What about the kinase still bound, per cent of control [13] of the same molecule?
The kinase still bound, per cent of control was 6.1%.

What about the kinase still bound, per cent of control [14] of the same molecule?
The kinase still bound, per cent of control was 22%.

What about the kinase still bound, per cent of control [15] of the same molecule?
The kinase still bound, per cent of control was 86%.

And the kinase still bound, per cent of control [16]?
The kinase still bound, per cent of control was 33%.

What about the kinase still bound, per cent of control [17] of the same molecule?
Its kinase still bound, per cent of control is 4.8%.

What about the kinase still bound, per cent of control [18] of the same molecule?
The kinase still bound, per cent of control was 100%.

And the kinase still bound, per cent of control [19]?
The kinase still bound, per cent of control was 70%.

What about the kinase still bound, per cent of control [20] of the same molecule?
Its kinase still bound, per cent of control is 97%.

And the kinase still bound, per cent of control [21]?
Its kinase still bound, per cent of control is 100%.

And the kinase still bound, per cent of control [22]?
The kinase still bound, per cent of control was 1.8%.

What about the kinase still bound, per cent of control [23] of the same molecule?
Its kinase still bound, per cent of control is 72%.

What about the kinase still bound, per cent of control [24] of the same molecule?
Its kinase still bound, per cent of control is 70%.

And the kinase still bound, per cent of control [25]?
The kinase still bound, per cent of control was 8%.

What about the kinase still bound, per cent of control [26] of the same molecule?
Its kinase still bound, per cent of control is 0.2%.

And the kinase still bound, per cent of control [27]?
Its kinase still bound, per cent of control is 100%.

And the kinase still bound, per cent of control [28]?
The kinase still bound, per cent of control was 85%.

And the kinase still bound, per cent of control [29]?
The kinase still bound, per cent of control was 93%.

What about the kinase still bound, per cent of control [30] of the same molecule?
The kinase still bound, per cent of control was 79%.

And the kinase still bound, per cent of control [31]?
Its kinase still bound, per cent of control is 100%.

What about the kinase still bound, per cent of control [32] of the same molecule?
Its kinase still bound, per cent of control is 2.8%.

What about the kinase still bound, per cent of control [33] of the same molecule?
Its kinase still bound, per cent of control is 100%.

What about the kinase still bound, per cent of control [34] of the same molecule?
Its kinase still bound, per cent of control is 35%.

And the kinase still bound, per cent of control [35]?
The kinase still bound, per cent of control was 100%.

What about the kinase still bound, per cent of control [36] of the same molecule?
Its kinase still bound, per cent of control is 65%.

And the kinase still bound, per cent of control [37]?
Its kinase still bound, per cent of control is 0.95%.

And the kinase still bound, per cent of control [38]?
Its kinase still bound, per cent of control is 97%.

And the kinase still bound, per cent of control [39]?
Its kinase still bound, per cent of control is 100%.

And the kinase still bound, per cent of control [40]?
Its kinase still bound, per cent of control is 36%.

And the kinase still bound, per cent of control [41]?
Its kinase still bound, per cent of control is 49%.

What about the kinase still bound, per cent of control [42] of the same molecule?
Its kinase still bound, per cent of control is 1.2%.
